This note sets out measurements from patent publication US5397774A, “Pyrazolopyrimidine and pyrimidinyl bisphosphonic esters as anti-inflammatories” (The Upjohn Company, priority 1993, dated 1995).

Structures can show the parent of a compound that is named as a salt.

The test system of one test is DTH granuloma (DTH GRA) lesion in mBSA-sensitized mice. Kind of test: Delayed Type Hypersensitivity Granuloma Assay (DTH GRA) model for inflammation. It is filed as in vivo, mouse. To be noted: 216 h; Table 1, Formula 1 compounds; 10 mg/kg PO; mouse DTH granuloma excised after nine days. The method, then:
This assay is described by Dunn, C.
Briefly, mBSA-sensitized mice have a DTH granuloma (DTH GRA) lesion induced by subcutaneously implanting a mBSA-soaked filter which is excised after nine days. Compounds are administered to the mice to determine their effect on the lesions. The results are recorded as percent inhibition. […] Inhibition of 10 to 20% is considered to indicate anti-granuloma activity.
Again, as in Table 1, the results are recorded as percent inhibition. […] Inhibition of 10 to 20% is considered to indicate anti-granuloma activity. […]
As to `Cc1cc(CCC(P2(=O)OCC(C)(C)CO2)P2(=O)OCC(C)(C)CO2)n2nc(C)c(C#N)c2n1` [n, (3-(3-Cyano-2,5-dimethyl-pyrazolo(1,5-a)pyrimidin-7-yl)-propylidene)bis(5,5-dimethyl-2,2'-dioxide-1,3,2-dioxaphosphorinane)], the inhibition in vivo at 10 mg/kg is 45%.

The same test, now with this note: 216 h; Table 2, Formula 2 compounds; 10 mg/kg PO; mouse DTH granuloma excised after nine days.
Turning to `Cn1c(CCC(P2(=O)OCC(C)(C)CO2)P2(=O)OCC(C)(C)CO2)nc(-c2cc(F)c(N3CCCCC3)c(F)c2F)cc1=O` [mm, (3-(2-(3-Methyl-4-oxo-6-(2,3,5-trifluoro-4-piperidinophenyl)-4(3H)-pyrimidinyl))-propylidine)bis(5,5-dimethyl-2,2'-dioxide-1,3,2-dioxaphosphorinane)], the inhibition in vivo at 10 mg/kg was 50%.

The same test, now with this note: Mus musculus, 216 h; Table 2, Formula 2 compounds; tested at 1 mg/kg, PO.
On to `Cn1c(CCC(P(=O)(O)O)P(=O)(O)O)nc(-c2ccccc2)cc1=O` [q, (3-(2-(3-Methyl-4-oxo-6-phenyl-4(3H)-pyrimidinyl))-propylidine)bisphosphonic acid disodium salt], for which the inhibition in vivo at 1 mg/kg came out at 57%.

The test is the same for the next values; noted with them: Mus musculus, po, 216 h, Table 1, Formula 1 compounds; 10 mg/kg PO; mouse DTH granuloma excised after nine days.
For `CCOP(=O)(OCC)C(CCc1c(Cl)c(C)nc2c(C#N)c(C)nn12)P(=O)(OCC)OCC` [o, (3-(6-Chloro-3-cyano-2,5-dimethyl-pyrazolo(1,5-a)pyrimidin-7-yl)-propylidene)bisphosphonic acid tetraethyl ester], the inhibition in vivo at 10 mg/kg was determined as 53%. Same read-out and setting: the same measure for `CCOP(=O)(OCC)C(CCc1cc(C)nc2c([N+](=O)[O-])c(C)nn12)P(=O)(OCC)OCC` [e, (3-(3-Nitro-2,5-dimethyl-pyrazolo(1,5-a)pyrimidin-7-yl)-propylidene)bisphosphonic acid tetraethyl ester]: 41%; for `CCOP(=O)(OCC)C(CCc1cc(C)nc2cc(-c3ccccc3)nn12)P(=O)(OCC)OCC` [i, (3-(5-Methyl-2-phenyl-pyrazolo(1,5-a)pyrimidin-7-yl)-propylidene)bisphosphonic acid tetraethyl ester]: 47%.

As to `CCOP(=O)(OCC)C(CCc1cc(C)nc2cc(OC(=O)c3ccccc3)nn12)P(=O)(OCC)OCC` [f, (3-(2-Benzoyloxy-5-methyl-pyrazolo(1,5-a)pyrimidin-7-yl)-propylidene)bisphosphonic acid tetraethyl ester], the inhibition in vivo at 10 mg/kg is 41%.

For `CCOP(=O)(OCC)C(CCc1cc(C)nc2cc(OCc3ccccc3)nn12)P(=O)(OCC)OCC` [g, (3-(2-Benzyloxy-5-methyl-pyrazolo(1,5-a)pyrimidin-7-yl)-propylidene)bisphosphonic acid tetraethyl ester], the inhibition in vivo at 10 mg/kg was determined as 44%. On the same count and under the same terms, next, `CCOP(=O)(OCC)C(CCc1cc(C)nc2c(Br)c(C)nn12)P(=O)(OCC)OCC` [d, (3-(3-Bromo-2,5-dimethyl-pyrazolo(1,5-a)pyrimidin-7-yl)-propylidene)bisphosphonic acid tetraethyl ester]: 44%; `COP(=O)(OC)C(CCc1cc(C)nc2c(C#N)c(C)nn12)P(=O)(OC)OC` [m, (3-(3-Cyano-2,5-dimethyl-pyrazolo(1,5-a)pyrimidin-7-yl)-propylidene)bisphosphonic acid tetramethyl ester]: 41%; `CCOP(=O)(OCC)C(CCc1cc(C)nc2c(C#N)c(C)nn12)P(=O)(OCC)OCC` [a, (3-(3-Cyano-2,5-dimethyl-pyrazolo(1,5-a)pyrimidin-7-yl)propylidene)bisphosphonic acid tetraethyl ester]: 46%.

Consider `CCOP(=O)(OCC)C(CCc1cc(C)nc2c(I)c(-c3ccccc3)nn12)P(=O)(OCC)OCC` [j, (3-(3-Iodo-5-methyl-2-phenyl-pyrazolo(1,5-a)pyrimidin-7-yl)-propylidene)bisphosphonic acid tetraethyl ester], for which the inhibition in vivo at 10 mg/kg was found to be 53%.

Regarding `CCCCCCOc1cc2nc(C)cc(CCC(P(=O)(OCC)OCC)P(=O)(OCC)OCC)n2n1` [h, (3-(2-Hexyloxy-5-methyl-pyrazolo(1,5-a)pyrimidin-7-yl)propylidene)-bisphosphonic acid tetraethyl ester], the inhibition in vivo at 10 mg/kg stood at 49%.

Still in this test, the particulars now being: Mus musculus, po, 216 h, Table 1, Formula 1 compounds; PO; footnote a: tested at 50 mg/kg.
Consider `CCOP(=O)(OCC)C(CCc1cc(C)nc2c(Br)c(-c3ccccc3)nn12)P(=O)(OCC)OCC` [l, (3-(3-Bromo-5-methyl-2-phenyl-pyrazolo(1,5-a)pyrimidin-7-yl)-propylidene)bisphosphonic acid tetraethyl ester], for which the inhibition in vivo at 50 mg/kg came out at 23%. For `CCOP(=O)(OCC)C(CCc1cc(C)nc2c(Cl)c(-c3ccccc3)nn12)P(=O)(OCC)OCC` [k, (3-(3-Chloro-5-methyl-2-phenyl-pyrazolo(1,5-a)pyrimidin-7-yl)-propylidene)bisphosphonic acid tetraethyl ester], the inhibition in vivo at 50 mg/kg was 31%.

The test is the same for the next values; noted with them: Mus musculus, po, 216 h, Table 2, Formula 2 compounds; 10 mg/kg PO; mouse DTH granuloma excised after nine days.
For the compound `CCOP(=O)(OCC)C(CCc1nc(-c2ccccc2)c(Br)c(=O)n1C)P(=O)(OCC)OCC` [y, (3-(2-(3-Methyl-4-oxo-5-bromo-6-phenyl-4(3H)-pyrimidinyl))-propylidine)bisphosphonic acid tetraethyl ester], the inhibition in vivo at 10 mg/kg worked out at 7%. Still for that read-out and setting: next, `CCOP(=O)(OCC)C(CCc1nc(-c2ccc(OC)cc2)cc(=O)n1C)P(=O)(OCC)OCC` [bb, (3-(2-(3-Methyl-4-oxo-6-(4-methoxyphenyl)-4(3H)-pyrimidinyl))-propylidine)bisphosphonic acid tetraethyl ester]: 22%; `CCOP(=O)(OCC)C(CCc1nc(-c2cccc(C)c2)cc(=O)n1C)P(=O)(OCC)OCC` [v, (3-(2-(3-Methyl-4-oxo-6-(3-methyl-phenyl)-4(3H)-pyrimidinyl))-propylidine)bisphosphonic acid tetraethyl ester]: 40%. Still for that read-out and setting: the same measure for `CCOP(=O)(OCC)C(CCc1nc(-c2ccccc2)cc(=O)n1Cc1ccccc1)P(=O)(OCC)OCC` [r, (3-(2-(3-Benzyl-4-oxo-6-phenyl-4(3H)-pyrimidinyl))-propylidine)bisphosphonic acid tetraethyl ester]: 17%. Regarding `COP(=O)(OC)C(CCc1nc(-c2ccccc2)cc(=O)n1C)P(=O)(OC)OC` [z, (3-(2-(3-Methyl-4-oxo-6-phenyl-4(3H)-pyrimidinyl))-propylidine)bisphosphonic acid tetramethyl ester], the inhibition in vivo at 10 mg/kg worked out at 36%. Same read-out and setting: the same measure for `CCOP(=O)(OCC)C(CCc1nc(-c2cccc(OC)c2)cc(=O)n1C)P(=O)(OCC)OCC` [w, (3-(2-(3-Methyl-4-oxo-6-(3-methoxy-phenyl)-4(3H)-pyrimidinyl))-propylidine) bisphosphonic acid tetraethyl ester]: 13%; for `CCOP(=O)(OCC)C(CCc1nc(-c2cccc(C(F)(F)F)c2)cc(=O)n1C)P(=O)(OCC)OCC` [x, (3-(2-(3-Methyl-4-oxo-6-(3-trifluoromethyl-phenyl)-4(3H)-pyrimidinyl))propylidine)bisphosphonic acid tetraethyl ester]: 6%.

`CCOP(=O)(OCC)C(CCc1nc(-c2ccccc2)cc(=O)n1CC)P(=O)(OCC)OCC` [ii, (3-(2-(3-Ethyl-4-oxo-6-phenyl-4(3H)-pyrimidinyl))-propylidine)bisphosphonic acid tetraethyl ester]: the inhibition in vivo at 10 mg/kg amounted to 12%.

For the compound `CCOP(=O)(OCC)C(CCc1nc(-c2ccc(Br)cc2)cc(=O)n1C)P(=O)(OCC)OCC` [aa, (3-(2-(3-Methyl-4-oxo-6-(4-bromophenyl)-4(3H)-pyrimidinyl))-propylidine)bisphosphonic acid tetraethyl ester], the inhibition in vivo at 10 mg/kg came to 20%.

As to `CCCn1c(CCC(P(=O)(OCC)OCC)P(=O)(OCC)OCC)nc(-c2ccccc2)cc1=O` [jj, (3-(2-(3-Propyl-4-oxo-6-phenyl-4(3H)-pyrimidinyl))-propylidine)bisphosphonic acid tetraethyl ester], the inhibition in vivo at 10 mg/kg is 41%. In the case of `CCOc1ccc(-c2cc(=O)n(C)c(CCC(P(=O)(OCC)OCC)P(=O)(OCC)OCC)n2)cc1` [ee, (3-(2-(3-Methyl-4-oxo-6-(4-ethoxyphenyl)-4(3H)-pyrimidinyl))-propylidine)bisphosphonic acid tetraethyl ester], the inhibition in vivo at 10 mg/kg is 46%.

Take `CCOP(=O)(O)C(CCc1nc(-c2ccccc2)cc(=O)n1C)P(=O)(OCC)OCC` (stereo not shown) [rr, (3-(2-(3-Methyl-4-oxo-6-phenyl-4(3H)-pyrimidinyl))-propylidine)bisphosphonic acid triethyl ester sodium salt]: the inhibition in vivo at 10 mg/kg is 50%.

Still in this test, the particulars now being: Table 2, Formula 2 compounds; 10 mg/kg PO; mouse DTH granuloma excised after nine days.
In the case of “3-(7-Chloro-3-(2-fluoro-phenyl)-4(3H)-quinazolinone)-propylidine)bisphosphonic acid tetraethyl ester [qq]”, the “% Inhibition” value is 29%. On to `CCOP(=O)(OCC)C(CCc1nc2cc(Cl)ccc2c(=O)n1C)P(=O)(OCC)OCC` [oo], for which the “% Inhibition” value is 41%. Same read-out and setting: next, “3-(7-Chloro-3-(α,α,α-trifluoro-o-tolyl)-4(3H)-quinazolinone)-propylidine)bisphosphonic acid tetraethyl ester [pp]”: 24%.

The test is the same for the next values; noted with them: Table 2, Formula 2 compounds; 10 mg/kg PO; mouse DTH granuloma excised after nine days; 10 mg/kg.
Regarding `CCOP(=O)(OCC)C(CCc1nc(-c2ccccc2)cc(=O)n1Cc1ccccc1)P(=O)(OCC)OCC` [gg, (3-(2-(3-Benzyl-4-oxo-6-phenyl-4(3H)-pyrimidinyl))-propylidine)bisphosphonic acid tetraethyl ester], the “% Inhibition” value worked out at 20%.

What is called inhibition in vivo is the share of the control response that was lost under treatment. As usually defined, the % Inhibition is the relative decrease from the control value, in per cent.
